This note sets out measurements from US8034574B2, “Screening method for prokinetic agent” (Astellas Pharma Inc., priority 2006, dated 2011).

The subject of one series is rat TRPA1 gene. In words: Suppression of rat TRPA1 gene expression by siRNA in RIN14B cells (real time PCR). The following applies: siRNA 10 nM, 2 days. Type of series: cell-based. Here is the method: The expression of the TRPA1 gene in rat tissues, a rat EC cell fraction and RIN14B cells was analyzed by real time PCR using a sequence detector (PRISM7900; Applied Biosystems). With the first strand cDNA derived from rat tissue, rat EC cells or RIN14B cells, obtained in the aforementioned Example, as the template, using a fluorescent reagent (SYBR Green PCR Core Reagents Kit; Applied Biosystems), PCR was performed. The aforementioned PCR was performed using an oligonucleotide consisting of the base sequence shown by SEQ ID NO:13 as a sense primer, and an oligonucleotide consisting of the base sequence shown by SEQ ID NO:14 as an antisense primer; first, thermal denaturation was performed at 95° C. (10 minutes), after which a cycle consisting of heat treatment at 95° C. (15 seconds)/59° C. (1 minute) was repeated 45 times. Each primer is a sequence specific for a gene consisting of the base sequence shown by SEQ ID NO:5. […]
RIN14B cells were sown to a 60 mm Petri dish at 6×10^5 cells and cultured for 1 day. After various sequences of siRNA for rat TRPA1 (10 nM), designed using the siRNA design system siDirect (RNAi), were introduced using a transformation reagent (LIPOFECTAMINE2000; Invitrogen Japan K.K.), the RIN14B cells were further cultured for 2 days, and the expression level of the rat TRPA1 gene was measured. […]
Background: In qPCR the cycle at which signal appears reflects the starting amount.

Series [1] has as its system RIN14B cells. Briefly: Channel activity in RIN14B cells using calcium-sensitive fluorescent reagent (FLIPR). Type of series: cell-based, rat. The following applies: siRNA-introduced RIN14B; allyl isothiocyanate 300 μM. The protocol:
RIN14B cells (5×10^4 cells), wherein the expression of TRPA1 was confirmed in Example 10, were incubated in the presence of a calcium-sensitive fluorescent reagent (Fluo3-AM; DOJINDO) at 37° C. for 1 hour to thereby incorporate the calcium-sensitive fluorescent reagent in the cells, after which the cells were washed with physiological saline to remove the calcium-sensitive fluorescent reagent that had not been incorporated in the cells. To the cells obtained, physiological saline supplemented with allyl isothiocyanate, cinnamic aldehyde, or acrolein was added; the fluorescence emitted by the cells was measured over time. The above-described measurements were performed using an automated fluorescence detection apparatus (FLIPR; Molecular Device). […] Ruthenium Red was added concurrently and a measurement was performed to determine whether or not calcium inflow in the cells was be inhibited.

Series [2] deals with RIN14B cells. In words: Serotonin secretion from RIN14B cells (immunoassay). The class given is cell-based, rat. The following applies: siRNA-introduced RIN14B; listed as #971 siRNA. Here is the method: After RIN14B cells in culture in a Petri dish were detached using a PBS containing 1 mM EDTA, they were sown to a 96-well plate and cultured for 2 days. The medium used was RPMI1640 (Invitrogen Japan K.K.) supplemented with 10% fetal bovine serum (ICN), 100 U/ml penicillin, and 100 μg/ml streptomycin. After the cells were once washed with Hanks' Balanced Salt Solutions (HBSS, Invitrogen) supplemented with 0.1% BSA and 10 μM fluoxetine (TOCRIS), each TRPA1 activator, previously diluted/prepared with the above-described HBSS, was added, and the RIN14B cells were cultured at 37° C. in the presence of 5% CO2 for 20 minutes. After the cultivation, the cell supernatant was recovered, and stored under freezing. The serotonin content in the supernatant was measured using a commercially available serotonin immunoassay kit (Beckman).

On to “#971: a rat TRPA1-specific siRNA (sense strand SEQ ID NO:15, antisense strand SEQ ID NO:16) (sense CUGGCAGACUACCUAAUUUCA; antisense AAAUUAGGUAGUCUGCCAGGU; listed as RNA, chemistry not given here)”, for which the “expression level of the rat TRPA1 gene” value in the series on rat TRPA1 gene is recorded as “a reduction in the expression level of the rat TRPA1 was observed”. Further, in the series on RIN14B cells [1], the “suppression of intracellular calcium inflow activity of allyl isothiocyanate” value came out at 67.3%. The “serotonin secretion increasing activity of cinnamic aldehyde in siRNA-introduced RIN14B” value in the series with RIN14B cells [2] was “suppressed cinnamic aldehyde-induced serotonin release”.
